Data reported in ChEMBL document CHEMBL1154222, “Ceratodictyols, 1-glyceryl ethers from the red alga-sponge association Ceratodictyon spongiosum/Haliclona cymaeformis” (J Nat Prod, 2009).
pIC50: −log10 of the molar value.

Test system: HeLa
Assay: Cytotoxicity against human HeLa cells
Assay type: functional, cell-based

SMILES	pIC50
CCCCCCCCCCC(=O)/C=C/CCCOC[C@@H](O)CO [CERATODICTYOL A]	4.17
CCCCCCCCC/C=C/C(=O)CCCCOC[C@@H](O)CO [CERATODICTYOL B]	4.17
